{"source": "paper PMC9167041", "about": "(Computational and Structural Biotechnology Journal, 2022)", "biological_target": "SARS-CoV-2 M^pro (Severe acute respiratory syndrome coronavirus 2, UniProt P0DTD1)", "experiment": "SARS-CoV-2 Mpro in vitro enzyme-based assay", "type": "biochemical", "conditions": "compound at 10 μM"}
{"smiles": "C=C1CCC2[C@](C)(COC(C)=O)[C@H](OC(C)=O)CC[C@@]2(C)[C@@H]1C[C@H](SC(=S)N1CCN(C(=O)C2COc3ccccc3O2)CC1)C1=CCOC1=O", "note": "(stereo partly shown) [3j]", "values": [{"measurement": "inhibition of SARS-CoV-2 M^pro", "result": "rather low inhibitory effect"}]}
